Source: patent US12121540B2, “CBL inhibitors and compositions for use in adoptive cell therapy” (Nurix Therapeutics, Inc., priority 2019, dated 2024)

Test system: E.G7-OVA tumors
Assay: Oral Cbl inhibitor treatment with expanded OT-1 cells in tumor-bearing mice
Format: in vivo, mouse
Protocol: Tumor volume was measured roughly every five days after cell transfer.
OT-1 cells were assessed in mouse blood 5 days and 20 days after transfer.

Compound: C[C@H]1CCCN(Cc2cc3c(c(C(F)(F)F)c2)CN(c2cccc([C@]4(c5nncn5C)C[C@@H](C)C4)c2)C3=O)C1 [compound 116]
- Anti-tumor efficacy (tumor volume) of OT-1 cells (oral administration, OT-1 cells expanded with compound 103 plus IL-2, FIG. 18): enhanced the anti-tumor efficacy
- Survival of mice (oral administration, OT-1 cells expanded with compound 103 plus IL-2, FIG. 19): enhanced survival
- Persistence of OT-1 cells in mouse blood (oral, OT-1 cells expanded with Cbl inhibitor plus IL-2): longer persistence
- Frequency of OT-1 cells in mouse blood (oral, OT-1 cells expanded with Cbl inhibitor plus IL-2, 5 and 20 days after transfer): increased frequency
